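The compound was tested at five concentrations on cells cultured in 96-well plates, with a 48-hour exposure period. TGI is the concentration that stops growth completely.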
Tests used:
Assay in all cases: DTP human tumour cell line panel, 48 h
[1] = test system: SNB-75 CNS
[2] = test system: SNB-19 CNS
[3] = test system: HCT-116 colon
[4] = test system: MCF7 breast
[5] = test system: MDA-N
[6] = test system: CCRF-CEM leukemia
[7] = test system: UACC-257 melanoma
[8] = test system: MOLT-4 leukemia
[9] = test system: ACHN renal
[10] = test system: NCI-H522 lung
[11] = test system: TK-10 renal
[12] = test system: K-562 leukemia
[13] = test system: A498 renal
[14] = test system: NCI-H226 lung
[15] = test system: KM12 colon
[16] = test system: UACC-62 melanoma
[17] = test system: HL-60(TB) leukemia
[18] = test system: OVCAR-4 ovarian
[19] = test system: EKVX NSCLC
[20] = test system: SF-295 CNS
[21] = test system: RXF 393 renal
[22] = test system: HOP-62 NSCLC
[23] = test system: OVCAR-5 ovarian
[24] = test system: RPMI-8226 leukemia
[25] = test system: IGROV1 ovarian
[26] = test system: M14 melanoma
[27] = test system: COLO 205 colon
[28] = test system: A549 NSCLC
[29] = test system: SW-620 colon
[30] = test system: U251 CNS
[31] = test system: PC-3 prostate
[32] = test system: LOX IMVI melanoma
[33] = test system: NCI-H460 lung
[34] = test system: SR leukemia
[35] = test system: SK-MEL-5 melanoma
[36] = test system: HCC-2998 colon
[37] = test system: OVCAR-8 ovarian
[38] = test system: HOP-92 NSCLC
[39] = test system: HT29 colon
[40] = test system: SF-539 CNS
[41] = test system: UO-31 renal
[42] = test system: NCI/ADR-RES ovarian
[43] = test system: SK-OV-3 ovarian
[44] = test system: DU-145 prostate
[45] = test system: SK-MEL-28 melanoma
[46] = test system: CAKI-1 renal
[47] = test system: MDA-MB-231 breast
[48] = test system: HCT-15 colon
[49] = test system: OVCAR-3 ovarian
[50] = test system: MDA-MB-435
[51] = test system: HS 578T breast
[52] = test system: SN12C renal
[53] = test system: MALME-3M melanoma
[54] = test system: T-47D breast
[55] = test system: 786-0 renal
[56] = test system: SF-268 CNS
[57] = test system: NCI-H23 lung
[58] = test system: SK-MEL-2 melanoma

With `CCCCCCCCCc1c(Cl)nc(Cl)nc1Cl` the TGI [1] was 29.6 µM, the TGI [2] was 30.8 µM and the TGI [3] was 27.9 µM. It also gave a TGI [4] of 36.5 µM, a TGI [5] of 32.2 µM and a TGI [6] of 5.79 µM. For the same compound, the TGI [7] was 34.6 µM, the TGI [8] was 5.18 µM and the TGI [9] was 33.7 µM. For the same compound, the TGI [10] was 12.1 µM, the TGI [11] was 37.8 µM and the TGI [12] was 19.4 µM. The TGI [13] was 34 µM, the TGI [14] was 20.1 µM and the TGI [15] was greater than 65 µM. The TGI [16] was 38.8 µM, the TGI [17] was 18.2 µM and the TGI [18] was 28.9 µM. It also gave a TGI [19] of 38.2 µM, a TGI [20] of 39.3 µM and a TGI [21] of 32.3 µM. The TGI [22] was 37.5 µM, the TGI [23] was 35.9 µM and the TGI [24] was 37.5 µM. For the same compound, the TGI [25] was 26.6 µM, the TGI [26] was 11 µM and the TGI [27] was 37.7 µM. For the same compound, the TGI [28] was 37.6 µM, the TGI [29] was 26.3 µM and the TGI [30] was 33 µM. For the same compound, the TGI [31] was 29.8 µM, the TGI [32] was 4.34 µM and the TGI [33] was 37.4 µM. For the same compound, the TGI [34] was 7.93 µM, the TGI [35] was 25.6 µM and the TGI [36] was 8.89 µM. For the same compound, the TGI [37] was 32.1 µM, the TGI [38] was 29.4 µM and the TGI [39] was 34 µM. The TGI [40] was 32.6 µM, the TGI [41] was 32.2 µM and the TGI [42] was 35.8 µM. The TGI [43] was 36.4 µM, the TGI [44] was 31.2 µM and the TGI [45] was 35.7 µM. It also gave a TGI [46] of 12.1 µM, a TGI [47] of 25 µM and a TGI [48] of 27.5 µM. It also gave a TGI [49] of 32 µM, a TGI [50] of 26.7 µM and a TGI [51] of 58.3 µM. The TGI [52] was 26.8 µM, the TGI [53] was 25.6 µM and the TGI [54] was 27 µM. The TGI [55] was 27.8 µM, the TGI [56] was 34.6 µM and the TGI [57] was 25.7 µM.

In the case of `O=[N+]([O-])C(=C1NCCN1)C(Cl)=C(Cl)Cl`, the TGI [2] is reported as greater than 100 µM, the TGI [3] is reported as greater than 100 µM and the TGI [58] is reported as greater than 100 µM. The TGI [4] was greater than 100 µM, the TGI [5] was greater than 100 µM and the TGI [6] was greater than 100 µM. For the same compound, the TGI [7] was greater than 100 µM, the TGI [8] was greater than 100 µM and the TGI [9] was greater than 100 µM. For the same compound, the TGI [10] was greater than 100 µM, the TGI [11] was greater than 100 µM and the TGI [12] was greater than 100 µM. It also gave a TGI [13] greater than 100 µM, a TGI [14] greater than 100 µM and a TGI [15] greater than 100 µM. It also gave a TGI [16] greater than 100 µM, a TGI [17] greater than 100 µM and a TGI [18] greater than 100 µM. For the same compound, the TGI [19] was greater than 100 µM, the TGI [20] was greater than 100 µM and the TGI [21] was greater than 100 µM. For the same compound, the TGI [22] was greater than 100 µM, the TGI [23] was greater than 100 µM and the TGI [24] was greater than 100 µM. It also gave a TGI [25] greater than 100 µM, a TGI [26] greater than 100 µM and a TGI [27] greater than 100 µM. For the same compound, the TGI [28] was greater than 100 µM, the TGI [30] was greater than 100 µM and the TGI [31] was greater than 100 µM. For the same compound, the TGI [32] was greater than 100 µM, the TGI [33] was greater than 100 µM and the TGI [34] was greater than 100 µM. The TGI [35] was greater than 100 µM, the TGI [36] was greater than 100 µM and the TGI [37] was greater than 100 µM. For the same compound, the TGI [39] was greater than 100 µM, the TGI [40] was greater than 100 µM and the TGI [41] was greater than 100 µM. It also gave a TGI [42] greater than 100 µM, a TGI [43] greater than 100 µM and a TGI [44] greater than 100 µM. For the same compound, the TGI [45] was greater than 100 µM, the TGI [46] was greater than 100 µM and the TGI [47] was greater than 100 µM. The TGI [48] was greater than 100 µM, the TGI [49] was greater than 100 µM and the TGI [50] was greater than 100 µM. The TGI [51] was greater than 100 µM, the TGI [52] was greater than 100 µM and the TGI [53] was greater than 100 µM. It also gave a TGI [54] greater than 100 µM, a TGI [55] greater than 100 µM and a TGI [56] greater than 100 µM. It also gave a TGI [57] greater than 100 µM.

`Cc1ccc(S(=O)(=O)NNC(=O)Nc2ccc(Cl)cc2)cc1` gave a TGI [1] of 99.7 µM, a TGI [2] greater than 100 µM and a TGI [3] greater than 100 µM. The TGI [58] was greater than 100 µM, the TGI [4] was greater than 100 µM and the TGI [5] was greater than 100 µM. The TGI [6] was greater than 100 µM, the TGI [7] was greater than 100 µM and the TGI [8] was greater than 100 µM. The TGI [9] was greater than 100 µM, the TGI [10] was greater than 100 µM and the TGI [11] was greater than 100 µM. The TGI [12] was greater than 100 µM, the TGI [13] was greater than 100 µM and the TGI [14] was greater than 100 µM. It also gave a TGI [15] greater than 100 µM, a TGI [16] greater than 100 µM and a TGI [17] greater than 100 µM. It also gave a TGI [18] greater than 100 µM, a TGI [19] greater than 100 µM and a TGI [20] greater than 100 µM. It also gave a TGI [21] greater than 100 µM, a TGI [22] greater than 100 µM and a TGI [23] greater than 100 µM. For the same compound, the TGI [24] was greater than 100 µM, the TGI [25] was greater than 100 µM and the TGI [26] was greater than 100 µM. For the same compound, the TGI [27] was greater than 100 µM, the TGI [28] was greater than 100 µM and the TGI [29] was greater than 100 µM. It also gave a TGI [30] greater than 100 µM, a TGI [31] greater than 100 µM and a TGI [33] greater than 100 µM. It also gave a TGI [34] greater than 100 µM, a TGI [35] greater than 100 µM and a TGI [36] greater than 100 µM. The TGI [37] was greater than 100 µM, the TGI [38] was greater than 100 µM and the TGI [39] was greater than 100 µM. It also gave a TGI [40] greater than 100 µM, a TGI [41] greater than 100 µM and a TGI [42] greater than 100 µM. The TGI [43] was greater than 100 µM, the TGI [44] was greater than 100 µM and the TGI [45] was greater than 100 µM. For the same compound, the TGI [46] was greater than 100 µM, the TGI [47] was greater than 100 µM and the TGI [48] was greater than 100 µM. It also gave a TGI [50] greater than 100 µM, a TGI [51] greater than 100 µM and a TGI [52] greater than 100 µM. The TGI [53] was greater than 100 µM, the TGI [54] was greater than 100 µM and the TGI [55] was greater than 100 µM. The TGI [56] was greater than 100 µM and the TGI [57] was greater than 100 µM.
